The source of these data is article PMC7335108, “Butyrate producing colonic Clostridiales metabolise human milk oligosaccharides and cross feed on mucin via conserved pathways” (Nature Communications, 2020).

One test has as its target T1, RiFuc29 (Roseburia inulinivorans, UniProt A0ACG1Y7F2).
T1 construct: gene LK408_15425; cleavable His6 tag, pETM11, E. coli; no signal peptide; the GH29 of the GH112/GH136 locus, not that of the GH98 locus
Nature of the test: product profile (TLC and/or MALDI-TOF MS). The following applies: 50 mM MES, 150 mM NaCl, 0.005% Triton X-100, pH 6.5, 37 °C, 16 h; alpha-(1->4)-L-fucosyl removed. Type of test: biochemical.

The target in test [1] is T2, RiLe^a/bBP (Roseburia inulinivorans, UniProt A0ACG1Y794).
T2 construct: gene LK408_15410; signal peptide removed, cleavable His6 tag, pETM11, expressed in E. coli; amine-coupled to CM5 chip
Briefly: surface plasmon resonance, steady state, one-site fit. In kind it is binding. The following applies: 20 mM sodium phosphate, 150 mM NaCl, 0.005% P20, pH 6.5, 25 °C; protein immobilised on CM5 chip. (SPR reads the build-up and loss of mass on a sensor chip optically.)

The next test concerns the target T3, RhGLnbp112 (Roseburia hominis, UniProt G2T0V2).
T3 construct: gene RHOM_04120; cleavable His6 tag, pETM11, E. coli
Briefly: phosphorolysis, HPAEC-PAD of Gal1P; specific activity only. Type of test: biochemical. To be noted: 50 mM sodium phosphate, 150 mM NaCl, 0.005% Triton X-100, pH 6.5, 37 °C, 2 mM substrate.

A further test deals with T4, ErLnb136 (Eubacterium ramulus, UniProt U2PDT9).
T4 construct: gene HMPREF0373_02965; single chain, domain I AA 7-224 and catalytic domain II AA 242-663; His6 tag, pETM11, E. coli; crystal SeMet-labelled
Briefly: X-ray crystal structure. To be noted: SeMet-labelled protein, 1.4 Å; 25 mM LNB in cryoprotectant; active site. Type of test: binding.

For test [2], the target named is T5, RhLNBBP (Roseburia hominis, UniProt G2T0U7).
T5 construct: gene RHOM_04095; signal peptide removed, cleavable His6 tag, pETM11, expressed in E. coli
T5 sequence (G2T0U7 21-454): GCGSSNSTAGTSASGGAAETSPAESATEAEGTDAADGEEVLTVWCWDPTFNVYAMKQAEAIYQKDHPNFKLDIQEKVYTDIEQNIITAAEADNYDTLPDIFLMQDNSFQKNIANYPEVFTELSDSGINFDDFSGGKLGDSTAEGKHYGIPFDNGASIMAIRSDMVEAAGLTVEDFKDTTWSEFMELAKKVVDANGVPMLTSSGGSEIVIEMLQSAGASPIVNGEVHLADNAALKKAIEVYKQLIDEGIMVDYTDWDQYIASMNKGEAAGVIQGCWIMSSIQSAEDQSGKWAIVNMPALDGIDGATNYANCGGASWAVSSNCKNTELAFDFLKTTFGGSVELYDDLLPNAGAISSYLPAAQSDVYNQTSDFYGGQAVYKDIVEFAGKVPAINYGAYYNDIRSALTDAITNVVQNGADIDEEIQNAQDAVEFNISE
Set-up: isothermal titration calorimetry, single-site binding model. The following applies: binder; read-out: KD (μM) ITC. As to the method: Binding of LNT, LNB, GNB, LNnT, lactose and 2′FL to RhLNBBP was measured using a Microcal ITC200 calorimeter (GE Healthcare). Titrations were performed in duplicates at 25 °C with RhLNBBP (0.1 mM) in the sample cell and 1.5 mM ligand in 10 mM sodium phosphate buffer, pH 6.5 in the syringe. A first injection of 0.4 µL was followed by 19 injections of 2 µL ligand each, separated by 180 s. Heat of dilution was determined from buffer titrations and corrected data were analysed using MicroCal Origin software v7.0. To determine binding thermodynamics a non-linear single binding model was fitted to the normalized integrated binding isotherms.

Test [3] deals with T6, RhLNBBP (Roseburia hominis, UniProt G2T0U7).
T6 construct: gene RHOM_04095; signal peptide removed, cleavable His6 tag, pETM11, expressed in E. coli
Nature of the test: isothermal titration calorimetry. In kind it is binding. To be noted: 10 mM sodium phosphate, pH 6.5, 25 °C. Background: Isothermal titration calorimetry measures the heat released or taken up as one component is titrated into another.

The next test addresses T7, RiGLnbp112 (Roseburia inulinivorans, UniProt A0ACG1Y7L8).
T7 construct: gene gnpA; cleavable His6 tag, pETM11, E. coli
Briefly: phosphorolysis, HPAEC-PAD of Gal1P; specific activity only. Type of test: biochemical. The following applies: 50 mM sodium phosphate, 150 mM NaCl, 0.005% Triton X-100, pH 6.5, 37 °C, 2 mM substrate.

The target in test [4] is T8, RiLe^a/bBP (Roseburia inulinivorans, UniProt A0ACG1Y794).
T8 construct: gene LK408_15410; signal peptide removed, cleavable His6 tag, pETM11, expressed in E. coli; amine-coupled to CM5 chip
T8 sequence (A0ACG1Y794 20-470): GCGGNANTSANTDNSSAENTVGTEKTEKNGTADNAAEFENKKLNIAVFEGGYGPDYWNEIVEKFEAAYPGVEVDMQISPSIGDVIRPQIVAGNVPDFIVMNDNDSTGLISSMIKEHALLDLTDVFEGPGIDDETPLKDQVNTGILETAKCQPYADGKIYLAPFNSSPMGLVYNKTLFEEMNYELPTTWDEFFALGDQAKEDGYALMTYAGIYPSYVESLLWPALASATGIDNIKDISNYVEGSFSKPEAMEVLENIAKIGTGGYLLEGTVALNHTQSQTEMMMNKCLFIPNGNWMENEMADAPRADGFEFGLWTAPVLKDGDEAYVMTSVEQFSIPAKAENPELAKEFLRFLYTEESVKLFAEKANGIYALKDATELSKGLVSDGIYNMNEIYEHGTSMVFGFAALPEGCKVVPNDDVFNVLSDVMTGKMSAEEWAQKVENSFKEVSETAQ
Further details: surface plasmon resonance, steady state, one-site fit. To be noted: binder; read-out: KD (µM) SPR. From the text:
Both SBPs recognized distinct HMOs and ligands from host-glycans (Fig. 4, Supplementary Tables 2 and 3, Supplementary Fig. 7). […] The loss of the fucosyl unit at the terminal reducing GlcNAc reduced the affinity of RiLe^a/bBP about 5-fold for blood group H antigen triose type I (H triose type I) relative to Le^b tetraose. The specificity of RiLe^a/bBP is highlighted by the lack of affinity for lacto-N-neotetroase (LNnT), blood group A antigen triose (A triose), lactose and 2′-fucosyllactose (2′-FL). […] An equimolar mixture of Le^b, Le^a and H-triose type I oligomers promoted the growth of R. inulinivorans to a similar final OD600 as glucose (Fig. 1b, c and Fig. 4a). The uptake profiles of these ligands reflected the preference of RiLe^a/bBP, consistent with uptake by the associated transporter (Fig. 4). This was also in accord with the utilization of larger fucosylated HMO structures observed during growth on purified HMOs from mother’s milk (Supplementary Fig. 2a–c).

The target of test [5] is T9, ErLnb136II, C-terminal catalytic beta-helix domain of the GH136 lacto-N-biosidase ErLnb136 from Eubacterium … (Eubacterium ramulus DSM 15684, UniProt U2PDT9 242-663, selenomethionine in the SeMet-labelled crystal (PDB 6KQS)).
T9 construct: C-terminal catalytic domain (AA 242-663, beta-helix fold) of ErLnb136, product of HMPREF0373_02965 of Eubacterium ramulus DSM 15684; In the crystal this domain is on ONE natural polypeptide with m3 (whole ErLnb136, cloned in pETM11 with a cleavable N- or C-terminal His6 tag); also called GH136II domain; source: E. coli B834 (DE3), SeMet-labelled, and E. coli BL21 ΔlacZ (DE3)/pRARE2, native
T9 sequence (looked up): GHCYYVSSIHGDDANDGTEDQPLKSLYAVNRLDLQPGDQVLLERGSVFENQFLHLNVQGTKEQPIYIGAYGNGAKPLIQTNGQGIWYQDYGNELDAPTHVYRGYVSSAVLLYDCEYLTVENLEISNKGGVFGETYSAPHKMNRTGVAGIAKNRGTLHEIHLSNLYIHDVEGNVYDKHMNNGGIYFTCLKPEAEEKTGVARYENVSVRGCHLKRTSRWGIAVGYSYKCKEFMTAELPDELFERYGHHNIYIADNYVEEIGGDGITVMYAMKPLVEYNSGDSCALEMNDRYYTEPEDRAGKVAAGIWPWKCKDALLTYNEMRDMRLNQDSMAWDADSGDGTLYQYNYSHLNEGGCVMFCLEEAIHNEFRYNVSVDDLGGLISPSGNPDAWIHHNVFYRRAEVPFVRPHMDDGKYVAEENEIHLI
Briefly: crystal structure; ErLnb136 (both domains on one chain) with LNB; SeMet-labelled 1.4 Å and native 2.0 Å; sitting-drop vapor diffusion at 20 °C. The following applies: both partners purified.

“And” between values parts separate entries of the source, which are not always exact repeats. Equal entries are not always repeated.

T3 sequence (G2T0V2 entry or part of it): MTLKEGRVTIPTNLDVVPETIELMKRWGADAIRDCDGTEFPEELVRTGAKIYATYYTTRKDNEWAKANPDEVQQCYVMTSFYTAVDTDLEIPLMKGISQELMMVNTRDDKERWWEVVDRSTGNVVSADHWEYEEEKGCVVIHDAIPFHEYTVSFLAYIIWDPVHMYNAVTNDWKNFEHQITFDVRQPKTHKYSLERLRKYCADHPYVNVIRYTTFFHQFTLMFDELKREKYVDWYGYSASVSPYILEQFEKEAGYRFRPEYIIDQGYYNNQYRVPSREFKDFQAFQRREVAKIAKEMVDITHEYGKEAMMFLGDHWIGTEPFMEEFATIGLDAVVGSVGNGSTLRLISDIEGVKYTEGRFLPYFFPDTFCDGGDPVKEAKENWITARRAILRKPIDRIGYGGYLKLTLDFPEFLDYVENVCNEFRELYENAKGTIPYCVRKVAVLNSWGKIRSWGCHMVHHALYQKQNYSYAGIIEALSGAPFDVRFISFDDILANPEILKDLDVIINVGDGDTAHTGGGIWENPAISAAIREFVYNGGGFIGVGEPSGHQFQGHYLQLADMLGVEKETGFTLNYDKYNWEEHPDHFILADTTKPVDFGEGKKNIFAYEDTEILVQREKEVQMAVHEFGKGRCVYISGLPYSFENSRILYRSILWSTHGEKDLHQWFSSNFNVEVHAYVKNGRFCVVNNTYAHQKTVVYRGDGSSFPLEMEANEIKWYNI
T7 sequence (A0ACG1Y7L8 entry or part of it): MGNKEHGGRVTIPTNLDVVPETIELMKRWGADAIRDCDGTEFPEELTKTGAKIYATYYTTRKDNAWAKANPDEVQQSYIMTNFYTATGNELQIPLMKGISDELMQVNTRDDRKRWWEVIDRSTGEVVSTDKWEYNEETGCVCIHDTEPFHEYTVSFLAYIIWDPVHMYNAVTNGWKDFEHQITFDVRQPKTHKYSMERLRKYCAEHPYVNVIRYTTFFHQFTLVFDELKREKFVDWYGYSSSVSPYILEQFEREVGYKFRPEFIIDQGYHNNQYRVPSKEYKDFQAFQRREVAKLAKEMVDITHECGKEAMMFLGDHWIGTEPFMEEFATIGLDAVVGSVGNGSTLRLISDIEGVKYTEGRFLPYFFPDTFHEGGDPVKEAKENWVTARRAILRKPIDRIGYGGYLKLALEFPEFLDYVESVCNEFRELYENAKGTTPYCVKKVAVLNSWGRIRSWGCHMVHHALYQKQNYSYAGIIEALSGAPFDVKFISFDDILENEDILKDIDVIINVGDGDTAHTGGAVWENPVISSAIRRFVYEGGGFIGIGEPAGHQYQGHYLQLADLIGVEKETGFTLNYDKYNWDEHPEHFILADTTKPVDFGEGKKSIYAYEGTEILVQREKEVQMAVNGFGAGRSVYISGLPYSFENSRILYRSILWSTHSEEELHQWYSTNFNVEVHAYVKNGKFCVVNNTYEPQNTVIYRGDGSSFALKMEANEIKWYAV
T4 sequence (U2PDT9 entry or part of it): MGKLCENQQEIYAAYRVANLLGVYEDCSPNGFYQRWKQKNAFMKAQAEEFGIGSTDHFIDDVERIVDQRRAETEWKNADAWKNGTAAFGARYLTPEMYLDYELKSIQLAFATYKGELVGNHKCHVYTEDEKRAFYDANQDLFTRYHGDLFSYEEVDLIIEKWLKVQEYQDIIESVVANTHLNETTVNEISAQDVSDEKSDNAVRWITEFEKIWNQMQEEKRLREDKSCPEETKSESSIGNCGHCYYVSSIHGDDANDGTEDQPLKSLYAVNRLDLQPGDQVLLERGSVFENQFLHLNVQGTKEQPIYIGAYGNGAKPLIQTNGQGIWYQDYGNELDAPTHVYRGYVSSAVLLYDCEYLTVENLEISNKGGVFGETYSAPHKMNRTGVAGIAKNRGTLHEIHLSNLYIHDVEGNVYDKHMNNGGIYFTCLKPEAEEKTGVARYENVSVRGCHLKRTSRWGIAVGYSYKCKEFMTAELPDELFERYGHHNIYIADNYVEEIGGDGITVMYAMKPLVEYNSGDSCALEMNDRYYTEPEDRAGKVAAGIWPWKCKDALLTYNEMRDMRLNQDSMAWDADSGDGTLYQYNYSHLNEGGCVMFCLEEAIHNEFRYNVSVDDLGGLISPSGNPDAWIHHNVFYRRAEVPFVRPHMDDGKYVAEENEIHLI
T1 sequence (A0ACG1Y7F2 entry or part of it): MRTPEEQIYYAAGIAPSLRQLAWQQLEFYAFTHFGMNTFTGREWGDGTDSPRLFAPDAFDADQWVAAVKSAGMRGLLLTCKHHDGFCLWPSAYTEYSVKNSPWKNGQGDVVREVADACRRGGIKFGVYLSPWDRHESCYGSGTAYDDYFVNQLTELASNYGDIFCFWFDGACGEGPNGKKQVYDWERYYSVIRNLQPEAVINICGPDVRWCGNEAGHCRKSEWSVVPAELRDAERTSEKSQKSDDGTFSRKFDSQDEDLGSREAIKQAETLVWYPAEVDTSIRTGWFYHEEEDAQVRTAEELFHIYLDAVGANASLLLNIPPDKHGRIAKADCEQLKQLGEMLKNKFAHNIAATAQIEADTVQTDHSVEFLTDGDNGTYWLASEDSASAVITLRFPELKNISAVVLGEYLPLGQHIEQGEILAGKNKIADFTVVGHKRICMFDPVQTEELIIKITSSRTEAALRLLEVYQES

Take `CC(=O)N[C@H]1C(O)O[C@H](CO)[C@@H](O[C@@H]2O[C@@H](C)C(O)C(O)[C@@H]2O)[C@@H]1O[C@@H]1O[C@H](CO)[C@H](O)[C@H](O)[C@H]1O` (stereo partly drawn) [Le^a triose]: on RiFuc29, the “product profile (TLC and/or MALDI-TOF MS)” value is “complete defucosylation of putative products of RiGH136, Le^b tetraose, Le^a triose and H triose”. The KD entry on RiLe^a/bBP [1] was “Lewis b (Le^b) tetraose and Lewis a (Le^a) triose were the preferred ligand”.
Usually Kd stands for the equilibrium constant for the complex coming apart. Regarding `CC(=O)N[C@H]1C(O)O[C@H](CO)[C@@H](O)[C@@H]1O[C@@H]1O[C@H](CO)[C@H](O)[C@H](O)[C@H]1O` (stereo partly drawn) [LNB], the “phosphorolysis, HPAEC-PAD of Gal1P; specific activity only” value on RhGLnbp112 is “This enzyme has comparable specific activities for LNB and GNB”; at RiGLnbp112 it was “(RiGLnbp112) phosphorolyzes LNB and GNB equally efficiently”. On ErLnb136, the X-ray crystal structure result is recorded as “The LNB molecule bound in the active site is recognized by ten potential hydrogen bonds”. Also, the Kd was 2.64 µM and 3.12 µM on RhLNBBP [2]; 6.63 µM and 6.91 µM at RiLe^a/bBP [4]. Also, at RhLNBBP [3], the KD entry was “shows preference to LNB followed by GNB and LNT”.
Regarding `CC(=O)N[C@H]1C(O)O[C@H](CO)[C@@H](O[C@@H]2O[C@@H](C)[C@@H](O)[C@@H](O)[C@@H]2O)[C@@H]1O[C@@H]1O[C@H](CO)[C@H](O)[C@H](O)[C@H]1O[C@@H]1O[C@@H](C)[C@@H](O)[C@@H](O)[C@@H]1O` (stereo partly drawn) [Le^b tetraose], the KD result on RiLe^a/bBP [1] is “Lewis b (Le^b) tetraose and Lewis a (Le^a) triose were the preferred ligand”. At RiLe^a/bBP [4], the Kd was 1.77 µM and 1.75 µM.
With `CC(=O)N[C@H]1[C@H](O[C@H]2[C@@H](O)[C@@H](CO)O[C@@H](O[C@H]3[C@H](O)[C@@H](O)C(O)O[C@@H]3CO)[C@@H]2O)O[C@H](CO)[C@@H](O)[C@@H]1O[C@@H]1O[C@H](CO)[C@H](O)[C@H](O)[C@H]1O` (stereo partly drawn) [LNT], the dissociation constant Kd on RhLNBBP [2] was 11 µM and 9.71 µM. For the same molecule, at RhLNBBP [3], the KD result is “shows preference to LNB followed by GNB and LNT”.
`CC(=O)N[C@H]1C(O)O[C@H](CO)[C@H](O)[C@@H]1O[C@@H]1O[C@H](CO)[C@H](O)[C@H](O)[C@H]1O` (stereo partly drawn) [GNB]: the “phosphorolysis, HPAEC-PAD of Gal1P; specific activity only” value is “This enzyme has comparable specific activities for LNB and GNB” at RhGLnbp112; “(RiGLnbp112) phosphorolyzes LNB and GNB equally efficiently” on RiGLnbp112. Moreover, the Kd was 10.9 µM and 11.1 µM at RhLNBBP [2]; 10.8 µM and 10.2 µM at RiLe^a/bBP [4]. In addition, the KD result at RhLNBBP [3] is “shows preference to LNB followed by GNB and LNT”.

B1: ErLnb136I, N-terminal domain of the GH136 lacto-N-biosidase ErLnb136 from Eubacterium ramulus (domain or fragment, Eubacterium ramulus DSM 15684, UniProt U2PDT9 7-224, looked up)
chain: NQQEIYAAYRVANLLGVYEDCSPNGFYQRWKQKNAFMKAQAEEFGIGSTDHFIDDVERIVDQRRAETEWKNADAWKNGTAAFGARYLTPEMYLDYELKSIQLAFATYKGELVGNHKCHVYTEDEKRAFYDANQDLFTRYHGDLFSYEEVDLIIEKWLKVQEYQDIIESVVANTHLNETTVNEISAQDVSDEKSDNAVRWITEFEKIWNQMQEEKRLRE
modifications: selenomethionine in the SeMet-labelled crystal (PDB 6KQS)
notes: N-terminal domain (AA 7-224, eight alpha-helices, new fold) of ErLnb136, product of HMPREF0373_02965 of Eubacterium ramulus DSM 15684; residues 180-199 are disordered in the structure; In the crystal this domain is on ONE natural polypeptide with m4 (whole ErLnb136, cloned in pETM11 with a cleavable N- or C-terminal His6 tag); The linker 225-241 is disordered; also called GH136I domain; source: …
For the molecule B1, the binding result in [5] is listed as “binds”.
